Reference: patent EP1071411B1, “TOPICAL IMMUNOSTIMULATION TO INDUCE LANGERHANS CELL MIGRATION” (TORREY PINES INSTITUTE FOR MOLECULAR STUDIES, priority 1998, dated 1999)

How the values were obtained:
EG7-OVA cells = test: Tumor-specific immunity after topical vaccination, subcutaneous tumor challenge, tumor size; assay type: in vivo, C57BL/6; conditions: for inhibiting tumor cell growth: Figure 4
Method: (§1) The C57BL/6 thymoma tumor cell line, EL4, was transfected with the complete gene for chicken ovalbumin (OVA). The resulting transfected cell line, EG7-OVA, expresses chicken ovalbumin. […] Based on the positive results using FITC, the inventors followed a similar protocol in an attempt to induce immunity to the EG7-OVA tumor by topical administration of the well-characterized, synthetic […] tumor-associated peptide.
C57BU6 mice were treated as follows: 1) shaving alone; 2) topical administration of acetone and dibutylphthalate; 3) […] (240 :g/ml) in DMSO diluted in PBS, followed in 5 hours by acetone and dibutylphthalate; and 4) […] (240 :g/ml) in acetone and dibutylphthalate. All mice were subsequently injected subcutaneously with 5 × 10^5 EG7-OVA cells (5-times the minimal tumorogenic dose). Tumor-specific immunity was monitored by measuring tumor size.
(§2) The mucous membranes lack the tough barrier posed by the stratum corneum. […] The EL4 parent tumor cell line, lacking chicken ovalbumin, was used as a […]; no immunity against the EL4 tumor cells was seen. Thus, the inventors' hypothesis regarding penetration of the stratum corneum was confirmed; the […] peptide was not reaching the Langerhans cells underlying the stratum corneum.
While intravaginal topical administration of tumor antigen provided an effective means of routing antigen to the Langerhans cells for subsequent induction of tumor-specific immunity, mucous membrane application sites, like the vagina, are not well-suited for convenient use and monitoring by general practitioners likely to be involved in administering the topical vaccinations of the present invention. Thus, to enhance the effectiveness of cutaneous topical administration, […] was dissolved in DMSO and applied to the skin without dilution. Dibutylphthalate in acetone was applied to the same site 5 hr later. All mice were subsequently injected subcutaneously with 5 x 10^5 EG7-OVA cells. The results shown in Figure 6 indicate that the peptide in DMSO was able to traverse the stratum corneum, effectively gaining access to the Langerhans cells. Tumor growth was suppressed after 6 to 9 days and even the established tumors were completely eliminated by 16 days post-inoculation. Thus, the tumor specific peptide, […], in concentrated DMSO, penetrated the stratum corneum, was incorporated into the MHC class I molecule K^b on epidermal Langerhans cells, and in the presence of the migration inducer, dibutylphthalate, was effectively presented to CD8+ CTLs in the lymph nodes.

EL4 tumor cells = test: Specificity control of intravaginal topical vaccination, parent tumor challenge; assay type: in vivo, C57BL/6; conditions: intravaginal topical application, SIINFEKL in acetone and dibutylphthalate; Figure 5
Text: as §1, §2

Langerhans cells = test: FITC Langerhans cell migration screening, draining inguinal lymph node, flow cytometry; assay type: in vivo, C57BL/6 mice; conditions: for Total MHC class II^th cells, distance from the positive control, dibutylphthalate (DBP): 5 mg/ml FITC in acetone and migration inducer, 100 µl, after 2 days, Figure 7; for FITC+ Langerhans cell number / total dendritic cell migration into the lymph node / nonspecific immigration: agent added to topical FITC in acetone, 2 days after treatment, Figure 1
Text: Fluorescein isothiocyanate (FITC) has been used extensively by the inventor and others, to characterize Langerhans cell migration. FITC is a small (mw 389) non-peptide, largely lipophilic molecule, capable of crossing the stratum corneum. Immunogenicity of FITC is due to the reactivity of its isothiocyanate group (-N-C-S) with free amino groups, permitting it to be covalently bound to proteins and/or peptides. C57BL/6 mice received the following treatments: 1) none; 2) abdomen shaving only; 3) topical administration of FITC in acetone; 4) topical administration of FITC in acetone and olive oil; 5) topical administration of FITC in acetone and DMSO diluted in phosphate buffered saline (PBS); and 6) topical administration of FITC in acetone and dibutylphthalate. The draining inguinal lymph nodes were then examined for immigrant Langerhans cells by immunofluorescent flow cytometry each day thereafter. Migratory Langerhans cells were identified by the presence of FITC and expression of high MHC class II molecules or by a Langerhans cell-specific monoclonal antibody (NLDC-145). Other dendritic cell residents of the lymph nodes could also be differentiated using a dendritic cell-specific monoclonal antibody, 33D1. The uptake of FITC and the Langerhans cell response to migratory signals were observable in the draining lymph node as early as six hours after topical administration. However, 48-72 hours was required for maximal rate of immigration into the lymph node. Figure 1 illustrates the effect of the various treatment regimens on total and FITC + lymphoid dendritic cells 2 days after treatment. […] Thus, dibutylphthalate was a very potent migration inducer.
High numbers of FITC+ Langerhans cells were present in the lymph node by 12 hours and the peak frequency of immigrant FITC+ Langerhans cells occurred about 2 to 3 days following topical administration. […] The unlabeled dendritic cells were most likely Langerhans cells that had lost the FITC label. Five days after skin painting, the lymph node cell population had increased by approximately 7.2 fold over baseline levels.
Compounds which are useful as inducers of Langerhans cell migration may be screened using the standard FITC methods described for the data presented in Figures 1-3. C57BL6 mice are shaved on their abdomens and painted with 100 µl test solution, containing 5 mg/ml FITC in a 50150 (v/v) mixture of acetone and the migration inducer (e.g. dibutylphthalate). After 2 days, the draining inguinal lymph node is removed and the total number of dendritic cells (both FITC+ and FITC-) is determined by flow cytometry and MHC class II immunoassay.

[1] = iontophoresis; cited from earlier work

Compound: CC[C@H](C)[C@H](NC(=O)[C@@H](NC(=O)[C@@H](N)CO)[C@@H](C)CC)C(=O)N[C@@H](CC(N)=O)C(=O)N[C@@H](Cc1ccccc1)C(=O)N[C@@H](CCC(=O)O)C(=O)N[C@@H](CCCCN)C(=O)N[C@@H](CC(C)C)C(=O)O
- inhibiting tumor cell growth (EG7-OVA cells; cutaneous, SIINFEKL (240 :g/ml) in DMSO diluted in PBS, followed in 5 hours by acetone and dibutylphthalate): none of the treatment protocols were effective
- inhibiting tumor cell growth (EG7-OVA cells; cutaneous, SIINFEKL (240 :g/ml) in acetone and dibutylphthalate): none of the treatment protocols were effective
- time by which established tumors were completely eliminated (EG7-OVA cells; cutaneous, SIINFEKL in undiluted DMSO, dibutylphthalate in acetone at same site 5 hr later, Figure 6): ≤ 16 days post-inoculation
- protection against the tumor (EG7-OVA cells; intravaginal topical application, SIINFEKL in acetone and dibutylphthalate, Figure 5): complete protection
- immunity against the EL4 tumor cells (EL4 tumor cells): no immunity

Compound: CC12CCC(CC1=O)C2(C)C (stereo not shown) [C, camphor]
- Total MHC class II^th cells, distance from the positive control, dibutylphthalate (DBP) (Langerhans cells): ≤ 1 standard deviation

Compound: CCCCOC(=O)[C@@H](O)[C@H](O)C(=O)OCCCC [DBT, dibutyl-D-tartrate]
- Total MHC class II^th cells, distance from the positive control, dibutylphthalate (DBP) (Langerhans cells): ≤ 1 standard deviation

Compound: C[S+](C)[O-] [DMSO, dimethylsulfoxide]
- FITC+ Langerhans cell number (Langerhans cells): no enhancement
- total dendritic cell migration into the lymph node / nonspecific immigration (Langerhans cells): modest stimulatory effect

Compound: CCCCCCCCCOC(=O)c1ccccc1C(=O)OCCCCCCCCC [DNP, dinonylphthalate]
- Total MHC class II^th cells, distance from the positive control, dibutylphthalate (DBP) (Langerhans cells): ≤ 1 standard deviation

Compound: CCCCOC(=O)c1ccccc1C(=O)OCCCC [dibutylphthalate]
- FITC+ Langerhans cell number (Langerhans cells): striking effect
- total dendritic cell migration into the lymph node / nonspecific immigration (Langerhans cells): striking effect
- inhibiting tumor cell growth (EG7-OVA cells; cutaneous topical acetone and dibutylphthalate without peptide, 5 × 10^5 EG7-OVA cells s.c.): none of the treatment protocols were effective

Compound: NC(=O)CC[C@@H]1NC(=O)[C@H](Cc2ccccc2)NC(=O)[C@H](Cc2ccc(O)cc2)NC(=O)[C@@H](N)CSSC[C@@H](C(=O)N2CCC[C@H]2C(=O)N[C@@H](CCCN=C(N)N)C(=O)NCC(N)=O)NC(=O)[C@H](CC(N)=O)NC1=O [vassopressin]
- fraction that crossed the stratum corneum [1]: about 0.4 % per hour

Compound: Fluorescein isothiocyanate [FITC]
- time required for maximal rate of immigration into the lymph node (Langerhans cells; after topical administration): 48 to 72 h

Compound: dibenzylbutylphthalate [DBBP]
- Total MHC class II^th cells, distance from the positive control, dibutylphthalate (DBP) (Langerhans cells): ≤ 1 standard deviation
